Each structure is given as a SMILES string. In brackets after ≈: the same amount, converted by molar mass. Bridge positions count the residues as written; N and C are the ends. Square brackets hold non-standard residues; d marks the D form. Peptide text beside a SMILES is read from it. ξ: configuration not given here. dNMeF = CN[C@H](Cc1ccccc1)C(=O)O; Ile(3ξ) = CCC(C)[C@H](N)C(=O)O; Chg = N[C@H](C(=O)O)C1CCCCC1; Nva = CCC[C@H](N)C(=O)O

The test has as its system MRSA ATCC 33591. To be noted: ATCC 33591. The procedure: For MIC testing all peptides were dissolved in DMSO (according to the method of L. L. Ling, et al., Nature 2015, 517, 455-459). Bacteria were grown on Mueller Hinton broth (oxoid). All incubations were at 37° C. Dilutions were carried out using Mueller Hinton. 100 μl of autoclaved Mueller Hinton broth was added to wells 2-12 on a 96-well plate. 200 μl of the peptide was added to well one at a concentration of 512 μg/ml. 100 μl of peptide in well one was taken up and pipetted into well two. The mixture was then mixed via pipetting before 100 μl was taken up and pipetted into well three. This process was repeated up to well 11. […] This was repeated three times. The 96-well plates were then incubated for 24 hours. The MIC was determined to be the lowest concentration at which there was no growth visible.
With `CC[C@@H](C)[C@@H](NC(=O)[C@@H](CCC(N)=O)NC(=O)[C@H](CO)NC(=O)[C@@H](NC(=O)[C@@H](Cc1ccccc1)NC)[C@@H](C)CC)C(=O)N[C@H](C(=O)N[C@@H](CO)C(=O)N[C@H]1C(=O)N[C@@H](C)C(=O)N[C@@H](C2CCCCC2)C(=O)N[C@@H]([C@@H](C)CC)C(=O)O[C@H]1C)[C@@H](C)CC` [Compound 36, Chg10-teixobactin], the “MIC (MRSA)” value was 0.25 µg/mL (≈ 0.204 µM).

For the compound `CCC[C@@H]1NC(=O)[C@H](C)NC(=O)[C@H](NC(=O)[C@H](CO)NC(=O)[C@@H](NC(=O)[C@H](NC(=O)[C@@H](CCC(N)=O)NC(=O)[C@H](CO)NC(=O)[C@@H](NC(=O)[C@@H](Cc2ccccc2)NC)[C@@H](C)CC)[C@H](C)CC)[C@@H](C)CC)[C@H](C)OC(=O)[C@H]([C@@H](C)CC)NC1=O` [Compound 44, Nva10-teixobactin], the “MIC (MRSA)” value was 0.5 µg/mL (≈ 0.421 µM).

As to `CC[C@@H](C)[C@@H](NC(=O)[C@@H](CCC(N)=O)NC(=O)[C@H](CO)NC(=O)[C@@H](NC(=O)[C@@H](Cc1ccccc1)NC)[C@@H](C)CC)C(=O)N[C@@H](C)C(=O)N[C@@H](CO)C(=O)N[C@H]1C(=O)N[C@@H](C)C(=O)N[C@@H](CCCNC(=N)N)C(=O)N[C@@H]([C@@H](C)CC)C(=O)O[C@H]1C` [Compound 12] (H-[dNMeF]IS[dQ][dI]AS[dT]ARI; ester 8-C), the “MIC (MRSA*)” value is >128 µg/mL.

On to `CC[C@@H](C)[C@@H](NC(=O)[C@@H](CCCNC(=N)N)NC(=O)[C@H](CO)NC(=O)[C@@H](NC(=O)[C@@H](Cc1ccccc1)NC)[C@@H](C)CC)C(=O)N[C@H](C(=O)N[C@@H](CO)C(=O)N[C@H]1C(=O)N[C@@H](C)C(=O)N[C@@H](C)C(=O)N[C@@H]([C@@H](C)CC)C(=O)O[C@H]1C)[C@@H](C)CC` [Compound 53, D-Arg4-Ala10-teixobactin], for which the “MIC (MRSA)” value was 4 µg/mL (≈ 3.37 µM).

In the case of `CCC(C)[C@@H]1NC(=O)[C@H](C)NC(=O)[C@H](NC(=O)[C@H](CO)NC(=O)[C@@H](NC(=O)[C@H](NC(=O)[C@@H](CCCNC(=N)N)NC(=O)[C@H](CCCNC(=N)N)NC(=O)[C@@H](NC(=O)[C@@H](Cc2ccccc2)NC)[C@@H](C)CC)[C@H](C)CC)[C@@H](C)CC)[C@H](C)OC(=O)[C@H]([C@@H](C)CC)NC1=O` (stereo partly drawn) [Compound 35, Arg3-D-Arg4-Ile10-teixobactin] (H-[dNMeF]IR[dR][dI]IS[dT]A[Ile(3ξ)]I; ester 8-C), the “MIC (MRSA)” value is 0.5 µg/mL (≈ 0.385 µM).

In the case of `CC[C@@H](C)[C@@H](NC(=O)[C@@H](CCC(N)=O)NC(=O)[C@H](CCCNC(=N)N)NC(=O)[C@@H](NC(=O)[C@@H](Cc1ccccc1)NC)[C@@H](C)CC)C(=O)N[C@H](C(=O)N[C@@H](CO)C(=O)N[C@H]1C(=O)N[C@@H](C)C(=O)N[C@@H](C2CCCCC2)C(=O)N[C@@H]([C@@H](C)CC)C(=O)O[C@H]1C)[C@@H](C)CC` [Compound 37, Arg3-Chg10-teixobactin], the “MIC (MRSA)” value came to 0.5 µg/mL (≈ 0.386 µM).

On to `CC[C@@H](C)[C@@H](NC(=O)[C@@H](C)NC(=O)[C@H](CO)NC(=O)[C@@H](NC(=O)[C@@H](Cc1ccccc1)NC)[C@@H](C)CC)C(=O)N[C@H](C(=O)N[C@@H](CO)C(=O)N[C@H]1C(=O)N[C@@H](C)C(=O)N[C@@H](CCCNC(=N)N)C(=O)N[C@@H]([C@@H](C)CC)C(=O)O[C@H]1C)[C@@H](C)CC` [Compound 10] (H-[dNMeF]IS[dA][dI]IS[dT]ARI; ester 8-C), for which the “MIC (MRSA*)” value fell in the range of 2 to 4 µg/mL.

Take `CC[C@@H](C)[C@@H](NC(=O)[C@@H](CCC(N)=O)NC(=O)[C@H](CCCNC(=N)N)NC(=O)[C@@H](NC(=O)[C@@H](Cc1ccccc1)NC)[C@@H](C)CC)C(=O)N[C@H](C(=O)N[C@@H](CO)C(=O)N[C@H]1C(=O)N[C@@H](CCCNC(=N)N)C(=O)N[C@@H](C2CCCCC2)C(=O)N[C@@H]([C@@H](C)CC)C(=O)O[C@H]1C)[C@@H](C)CC` [Compound 41, Arg3-Arg9-Chg10-teixobactin] (H-[dNMeF]IR[dQ][dI]IS[dT]R[Chg]I; ester 8-C): the “MIC (MRSA)” value was 0.5 µg/mL (≈ 0.362 µM).

For `CC[C@@H](C)[C@@H](NC(=O)[C@@H](CCCNC(=N)N)NC(=O)[C@H](CCCNC(=N)N)NC(=O)[C@@H](NC(=O)[C@@H](Cc1ccccc1)NC)[C@@H](C)CC)C(=O)N[C@H](C(=O)N[C@@H](CO)C(=O)N[C@H]1C(=O)N[C@@H](C)C(=O)N[C@@H](C2CCCCC2)C(=O)N[C@@H]([C@@H](C)CC)C(=O)O[C@H]1C)[C@@H](C)CC` [Compound 40, Arg3-D-Arg4-Chg10-teixobactin] (H-[dNMeF]IR[dR][dI]IS[dT]A[Chg]I; ester 8-C), the “MIC (MRSA)” value stood at 1 µg/mL (≈ 0.755 µM).

As for `CCC[C@@H]1NC(=O)[C@H](CCCNC(=N)N)NC(=O)[C@H](NC(=O)[C@H](CO)NC(=O)[C@@H](NC(=O)[C@H](NC(=O)[C@@H](CCC(N)=O)NC(=O)[C@H](CCCNC(=N)N)NC(=O)[C@@H](NC(=O)[C@@H](Cc2ccccc2)NC)[C@@H](C)CC)[C@H](C)CC)[C@@H](C)CC)[C@H](C)OC(=O)[C@H]([C@@H](C)CC)NC1=O` [Compound 49, Arg3-Arg9-Nva10-teixobactin] (H-[dNMeF]IR[dQ][dI]IS[dT]R[Nva]I; ester 8-C), the “MIC (MRSA)” value amounted to 0.5 µg/mL (≈ 0.373 µM).

Turning to `CC[C@@H](C)[C@@H](NC(=O)[C@@H](CCC(N)=O)NC(=O)[C@H](CO)NC(=O)[C@@H](NC(=O)[C@@H](C)NC(C)=O)[C@@H](C)CC)C(=O)N[C@H](C(=O)N[C@@H](CO)C(=O)N[C@H]1C(=O)N[C@@H](C)C(=O)N[C@@H](CCCNC(=N)N)C(=O)N[C@@H]([C@@H](C)CC)C(=O)O[C@H]1C)[C@@H](C)CC` [Compound 7], the “MIC (MRSA*)” value was >128 µg/mL.

Turning to `CCC[C@@H]1NC(=O)[C@H](C)NC(=O)[C@H](NC(=O)[C@H](CO)NC(=O)[C@@H](NC(=O)[C@H](NC(=O)[C@@H](CCC(N)=O)NC(=O)[C@H](CCCNC(=N)N)NC(=O)[C@@H](NC(=O)[C@@H](Cc2ccccc2)NC)[C@@H](C)CC)[C@H](C)CC)[C@@H](C)CC)[C@H](C)OC(=O)[C@H]([C@@H](C)CC)NC1=O` [Compound 45, Arg3-Nva10-teixobactin] (H-[dNMeF]IR[dQ][dI]IS[dT]A[Nva]I; ester 8-C), the “MIC (MRSA)” value is 1 µg/mL (≈ 0.796 µM).

Consider `CCC[C@@H]1NC(=O)[C@H](C)NC(=O)[C@H](NC(=O)[C@H](CO)NC(=O)[C@@H](NC(=O)[C@H](NC(=O)[C@@H](CCCNC(=N)N)NC(=O)[C@H](CO)NC(=O)[C@@H](NC(=O)[C@@H](Cc2ccccc2)NC)[C@@H](C)CC)[C@H](C)CC)[C@@H](C)CC)[C@H](C)OC(=O)[C@H]([C@@H](C)CC)NC1=O` [Compound 46, D-Arg4-Nva10-teixobactin], for which the “MIC (MRSA)” value was found to be 0.25 µg/mL (≈ 0.206 µM).

Consider `CC[C@@H](C)[C@@H](NC(=O)[C@@H](CCC(N)=O)NC(=O)[C@H](CO)NC(=O)[C@@H](NC(=O)[C@@H](Cc1ccccc1)NC)[C@@H](C)CC)C(=O)N[C@H](C(=O)N[C@@H](CO)C(=O)N[C@H]1C(=O)N[C@@H](CCCNC(=N)N)C(=O)N[C@@H](C2CCCCC2)C(=O)N[C@@H]([C@@H](C)CC)C(=O)O[C@H]1C)[C@@H](C)CC` [Compound 39, Arg9-Chg10-teixobactin], for which the “MIC (MRSA)” value was found to be 1 µg/mL (≈ 0.762 µM).

Take `CCC[C@@H]1NC(=O)[C@H](CCCNC(=N)N)NC(=O)[C@H](NC(=O)[C@H](CO)NC(=O)[C@@H](NC(=O)[C@H](NC(=O)[C@@H](CCC(N)=O)NC(=O)[C@H](CO)NC(=O)[C@@H](NC(=O)[C@@H](Cc2ccccc2)NC)[C@@H](C)CC)[C@H](C)CC)[C@@H](C)CC)[C@H](C)OC(=O)[C@H]([C@@H](C)CC)NC1=O` [Compound 47, Arg9-Nva10-teixobactin] (H-[dNMeF]IS[dQ][dI]IS[dT]R[Nva]I; ester 8-C): the “MIC (MRSA)” value was found to be 0.5 µg/mL (≈ 0.393 µM).

Regarding `CC[C@@H](C)[C@@H](NC(=O)[C@@H](CCC(N)=O)NC(=O)[C@H](CO)NC(=O)[C@H](C)NC(=O)[C@@H](Cc1ccccc1)NC)C(=O)N[C@H](C(=O)N[C@@H](CO)C(=O)N[C@H]1C(=O)N[C@@H](C)C(=O)N[C@@H](CCCNC(=N)N)C(=O)N[C@@H]([C@@H](C)CC)C(=O)O[C@H]1C)[C@@H](C)CC` [Compound 8] (H-[dNMeF]AS[dQ][dI]IS[dT]ARI; ester 8-C), the “MIC (MRSA*)” value was >128 µg/mL.

Consider `CC[C@@H](C)[C@@H](NC(=O)[C@@H](CCCNC(=N)N)NC(=O)[C@H](CCCNC(=N)N)NC(=O)[C@@H](NC(=O)[C@@H](Cc1ccccc1)NC)[C@@H](C)CC)C(=O)N[C@H](C(=O)N[C@@H](CO)C(=O)N[C@H]1C(=O)N[C@@H](CCCNC(=N)N)C(=O)N[C@@H](C2CCCCC2)C(=O)N[C@@H]([C@@H](C)CC)C(=O)O[C@H]1C)[C@@H](C)CC` [Compound 43, Arg3-D-Arg4-Arg9-Chg10-teixobactin] (H-[dNMeF]IR[dR][dI]IS[dT]R[Chg]I; ester 8-C), for which the “MIC (MRSA)” value turned out to be 64 µg/mL (≈ 45.4 µM).

As to `CC[C@@H](C)[C@@H](NC(=O)[C@@H](CCC(N)=O)NC(=O)[C@H](CO)NC(=O)[C@@H](NC(=O)[C@@H](Cc1ccccc1)NC)[C@@H](C)CC)C(=O)N[C@H](C(=O)N[C@@H](CO)C(=O)N[C@H]1C(=O)N[C@@H](C)C(=O)NCC(=O)N[C@@H]([C@@H](C)CC)C(=O)O[C@H]1C)[C@@H](C)CC` [Compound 16, Gly10-teixobactin], the “MIC (MRSA*)” value was 2 µg/mL (≈ 1.75 µM).

On to `CC[C@@H](C)[C@@H](NC(=O)[C@@H](CCC(N)=O)NC(=O)[C@H](CO)NC(=O)[C@@H](NC(=O)[C@@H](Cc1ccccc1)NC)[C@@H](C)CC)C(=O)N[C@H](C(=O)N[C@@H](C)C(=O)N[C@H]1C(=O)N[C@@H](C)C(=O)N[C@@H](CCCNC(=N)N)C(=O)N[C@@H]([C@@H](C)CC)C(=O)O[C@H]1C)[C@@H](C)CC` [Compound 13, reference compound] (H-[dNMeF]IS[dQ][dI]IA[dT]ARI; ester 8-C), for which the “MIC (MRSA*)” value fell in the range of 16 to 32 µg/mL.

For the origin of these results see patent US20240327463A1, “ANTIBACTERIAL PRODUCTS” (priority 2017, published 2024).
